Data on two compounds can be found in patent US8927009B2 (AbbVie Inc., priority 2009, dated 2015).

Molecules are shown by their SMILES.

Data set [1] in a line: Drug solubility in ternary excipient systems. The data set is classed as physicochemical. On the set-up: key: ✓: vehicle miscible, or drug fully dissolved in vehicle; x: vehicle immiscible or miscible but turbid, or residual solids present (due to undissolved drug or precipitation). Conditions: 10% salt, 20% free base, listed as free base. The text has this:
Solvents evaluated included Labrafil M 1944 CS™, Imwitor 742™, oleic acid, Capmul PG-8™, Capmul PG-12™, Lauroglycol 90™ (propylene glycol monolaurate, available from Gattefossé) and Phosal 53 MCT™. Surfactants evaluated included Tween 80™, Cremophor RH40™, Gelucire 44/14™ (polyoxyethylene glyceryl laurate, available from Gattefossé) and Labrasol™.

The nature of data set [2]: Solubility in lipid solvents and solvent mixtures in ambient conditions. The data set is classed as physicochemical. Conditions: listed as Parent (Form I). The protocol:
Solubility of ABT-263 parent (free base, crystalline Form I) and ABT-263 bis-HCl salt was tested in a variety of lipid solvents and solvent mixtures in ambient conditions. Trademarked solvents in this study, unless identified hereinabove, are as follows (substantially equivalent products from other manufacturers can be substituted if available): • Miglyol 810™ of Sasol: caprylic/capric triglycerides; • Capmul MCM™ of Abitec: glyceryl caprylate/caprate; • Captex 300™ of Abitec: caprylic/capric triglycerides; • Labrafil M 2125 CS™ of Gattefossé: polyoxyethylene glyceryl linoleate; • Tween 20™ of Uniqema: polysorbate 20; • Labrasol™ of Gattefossé: polyoxyethylene glyceryl caprylate/caprate; • Cremophor RH40™: polyoxyethyene (40) hydrogenated castor oil. “PE-91” is Phosal 53 MCT™+ethanol, 9:1 by volume. “LOT-343” is Labrafil M 1944 CS™+oleic acid+Tween 80™, 30:40:30 by weight.
In some cases, indicated in Table 4 by an asterisk (*), solubility was initially high but precipitation occurred upon standing.

A further data set deals with Bcl-2 (Homo sapiens, UniProt P10415). Particulars: cited from earlier work.
In another data set the target is Bcl-XL (Homo sapiens, UniProt Q07817). Conditions: cited from earlier work.
The next data set addresses T1, Bcl-w (Homo sapiens, UniProt Q92843).
T1 sequence (Q92843 1-193): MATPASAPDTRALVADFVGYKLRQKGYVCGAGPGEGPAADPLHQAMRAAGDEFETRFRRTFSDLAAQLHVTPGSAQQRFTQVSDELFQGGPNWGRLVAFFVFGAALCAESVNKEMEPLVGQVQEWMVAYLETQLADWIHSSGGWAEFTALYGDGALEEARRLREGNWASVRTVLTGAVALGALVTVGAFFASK
Particulars: cited from earlier work.

Chain of Bcl-XL (Q07817 whole entry): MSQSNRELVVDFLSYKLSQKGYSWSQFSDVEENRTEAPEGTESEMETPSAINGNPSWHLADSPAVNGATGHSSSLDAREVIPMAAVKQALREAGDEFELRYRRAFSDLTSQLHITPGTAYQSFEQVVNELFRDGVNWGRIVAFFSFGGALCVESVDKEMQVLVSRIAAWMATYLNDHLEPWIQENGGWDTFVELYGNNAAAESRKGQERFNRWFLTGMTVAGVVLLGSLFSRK
Chain of Bcl-2 (P10415 whole entry): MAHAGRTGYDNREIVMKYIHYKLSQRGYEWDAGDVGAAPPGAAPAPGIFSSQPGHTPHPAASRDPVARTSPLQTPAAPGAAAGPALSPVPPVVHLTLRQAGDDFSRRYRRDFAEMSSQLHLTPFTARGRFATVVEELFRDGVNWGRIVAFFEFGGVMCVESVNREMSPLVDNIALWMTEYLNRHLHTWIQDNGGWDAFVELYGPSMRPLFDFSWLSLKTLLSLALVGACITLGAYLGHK

For the compound `CC1(C)CCC(c2ccc(Cl)cc2)=C(CN2CCN(c3ccc(C(=O)NS(=O)(=O)c4ccc(N[C@H](CCN5CCOCC5)CSc5ccccc5)c(S(=O)(=O)C(F)(F)F)c4)cc3)CC2)C1` [ABT-263], the ABT-263 solubility result in data set [1] (Imwitor 742/Labrafil M 1944 CS/Cremophor RH40 (ILC) 40:40:20 % by weight), in data set [1] (Imwitor 742/Labrafil M 1944 CS/Cremophor RH40 (ILC) 50:30:20 % by weight), in data set [1] (Imwitor 742/Labrafil M 1944 CS/Cremophor RH40 (ILC) 50:40:10 % by weight), in data set [1] (Imwitor 742/Labrafil M 1944 CS/Cremophor RH40 (ILC) 60:30:10 % by weight), in data set [1] (Imwitor 742/Labrafil M 1944 CS/Labrasol (ILL) 40:40:20 % by weight) and in data set [1] (Imwitor 742/Labrafil M 1944 CS/Labrasol (ILL) 50:30:20 % by weight) was “x” throughout. The ABT-263 solubility result in data set [1] (Imwitor 742/Labrafil M 1944 CS/Labrasol (ILL) 50:40:10 % by weight), in data set [1] (Imwitor 742/Labrafil M 1944 CS/Labrasol (ILL) 60:30:10 % by weight), in data set [1] (Labrafil M 1944 CS/Imwitor 742/Tween 80 (LIT) 30:40:30 % by weight), in data set [1] (Labrafil M 1944 CS/Imwitor 742/Tween 80 (LIT) 30:45:25 % by weight), in data set [1] (Labrafil M 1944 CS/Imwitor 742/Tween 80 (LIT) 40:30:30 % by weight) and in data set [1] (Labrafil M 1944 CS/Imwitor 742/Tween 80 (LIT) 40:35:25 % by weight) was “x” throughout. Moreover, the ABT-263 solubility entry in data set [1] (Lauroglycol 90/Labrafil M 1944 CS/Labrasol (LLL) 50:40:10 % by weight) and in data set [1] (Lauroglycol 90/Labrafil M 1944 CS/Labrasol (LLL) 60:30:10 % by weight) was “x” in each case. In addition, the Solubility in data set [2] (in Labrafil M 2125 CS, ambient conditions) is given as >290 mg/g; in data set [2] (in PE-91 (Phosal 53 MCT + ethanol 9:1 by volume), ambient conditions), >250 mg/g; in data set [2] (in PEG-400, ambient conditions), >200 mg/g; in data set [2] (in corn oil, ambient conditions), <86 mg/g; in data set [2] (in sesame oil, ambient conditions) it was <75 mg/g.
With `CN(C)CC[C@H](CSc1ccccc1)Nc1ccc(S(=O)(=O)NC(=O)c2ccc(N3CCN(Cc4ccccc4-c4ccc(Cl)cc4)CC3)cc2)cc1[N+](=O)[O-]` [ABT-737], the binding affinity at Bcl-2, at Bcl-XL and on Bcl-w was < 1 nM in each case.
